Results published in patent publication US20190298664A1, “METHOD AND KIT FOR MYOCARDIAL REPERFUSION, AND METHOD FOR ATTENUATING OR REDUCING MYOCARDIAL REPERFUSION INJURY” (Academia Sinica, priority 2018, published 2019).

Legend:
I/R mice [1] = experiment: Myocardial infarct size (Evans blue/TTC staining) in I/R mice; format: in vivo, mouse; conditions: 2 mg/kg IP
Description: (§1) We anesthetized the mouse with 5% isoflurane mixed with room air until loss of sensation of pain and then maintained the mouse in anesthesia status with 2% isoflurane mixed with room air through the whole procedure. The mouse's body temperature was maintained at 37° C. by a heating pad. After the mouse was intubated, we provided artificial ventilation to the mouse with a small animal ventilator. Then the chest cavity was opened at the second intercostal space and homemade chest retractors were utilized to widen the incision. We pulled the pericardium apart carefully and exposed the left anterior descending artery (LAD). A 7-0 silk was put underneath the LAD at the position of the tip of the left auricle, a 6 mm length of PE-10 tube was put on the surface of the LAD, and then a double knot was made to occlude the blood flow of LAD. The success of ligation was confirmed by paling the anterior wall of the LV. For the reperfusion group, the LAD knot would be untied for the purpose of reperfusion after 1 hour of ischemia. For the sham operation group, all procedures were the same except for the knot that occluded the LAD flow. After the successful procedure, we left the silk in situ, closed the chest cavity and weaned the animal from the ventilator.
At the end of experiment, the animal was sacrificed. We opened the chest cavity and exposed the heart and aorta. The heart was perfused with 0.9% saline from the apex until the coronary vessels and myocardium turning into pale color. After saline perfusion, the LAD knot was tied again. 1 mL of 1% Evans blue dye was delivered into the heart through the aortic root by retrograde injection. The dye uniformly perfused the whole heart except in the area of the heart previously perfused by the occluded coronary artery (area at risk, AAR). Then the heart was quickly removed, washed in ice-cold 0.9% saline followed by frozen at −20° C. for 20 minutes, then cut into slices of 1 mm with heart matrix. […] The areas stained with Evans blue negative but TTC-positive (AAR), and TTC-negative area (infarct area) were all measured digitally by ImageJ software. […]

I/R mice [2] = experiment: Histopathology (H&E, Masson Trichrome) one week post-I/R in mice; format: in vivo, mouse; conditions: 2 mg/kg IP; one week after I/R
Text: as §1, with “(A) The representative echocardiographic images, (B) the quantification of ejection fraction, (C) the representative histopathologic […]) the quantification of infarct size were obtained from the mice with the indicated treatments for one week post-I/R (n=8). (E) The representative enlarged H&E stain obtained from mice one week post-I/R. The areas highlighted in yellow boxes (left panel) are shown by the enlarged view (right panel). (F) The representative Masson Trichrome stain obtained from mice one week post-I/R. The black arrows indicate the location of inflammation or fibrosis in the myocardium. I/R: I/R-mice treated with the vehicle control, I/R+A: […] treated with Auranofin. (B) and (D) **P<0.01. We anesthetized” for “We anesthetized”, “confirmed by […] anterior wall” for “confirmed by paling the anterior wall”

`CC(=O)OC[C@H]1O[C@@H]([S-])[C@H](OC(C)=O)[C@@H](OC(C)=O)[C@@H]1OC(C)=O.CCP(CC)CC.[Au+]` [Auranofin, auranofin] was tested, and the Infarct size (I/R mice [1]; four hours after reperfusion, versus vehicle-only controls) was “significantly decreased”, the Infarct size (I/R mice [1]; one day after reperfusion) was “smaller” and the Fibrosis (I/R mice [2]) was “less”. For the same compound, the “Infarct size (pathological study, H&E)” value (I/R mice [2]) was “smaller”, the Infiltrating inflammatory cells (I/R mice [2]) was “fewer” and the “Myocardial thinning over the injured area” value (I/R mice [2]) was “a minor degree”.
